One cell line from the supplement of paper PMC10307832 can be followed below.

Common to all, as to test: relative viability (nuclei count vs DMSO), 5 days (fraction); higher = more cells survive
Compound in test [1]: Nc1nc(Nc2ccc3c(c2)CC[C@@H](N2CCCC2)CC3)nn1-c1cc2c(nn1)-c1ccccc1CCC2 [Bemcentinib] + CC(=O)c1c(C)c2cnc(Nc3ccc(N4CCNCC4)cn3)nc2n(C2CCCC2)c1=O [Palbociclib] (partner 0.5 µM)
Summed up:
(§1)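 Lung cancer cell lines were seeded in 1536-well plates and dosed by pin tool the next day, with either a single drug or a fixed anchor-drug dose combined with five library-drug doses (not always all listed) spaced in √10 steps. Five days later, one step fixed the cells and stained their nuclei (final 0.05% Triton X-100, 1% formaldehyde, 1 ug/ml Hoechst), and nuclei were counted on 4× images. Relative viability is the nuclei count in treated wells divided by the count in vehicle wells, and each value is the median of duplicate plates.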

Compound in test [2]: CNC(=O)c1ccccc1Sc1ccc2c(/C=C/c3ccccn3)n[nH]c2c1 [Axitinib] + Cc1cc(Nc2cc(N3CCN(C)CC3)nc(Sc3ccc(NC(=O)C4CC4)cc3)n2)n[nH]1 [Tozasertib] (partner 0.1 µM)
Summed up: as §1

Compound in test [3]: CC1=CC=C(C=C1)C(=O)CN2C3=C(CCCC3)SC2=N [Pifithrin_alpha] + O=C(c1cc(Cc2n[nH]c(=O)c3ccccc23)ccc1F)N1CCN(C(=O)C2CC2)CC1 [Olaparib] (partner 8 µM)
Summed up: as §1

Compound in test [4]: CNC(=O)c1ccccc1Sc1ccc2c(/C=C/c3ccccn3)n[nH]c2c1 [Axitinib] + CC(=O)c1c(C)c2cnc(Nc3ccc(N4CCNCC4)cn3)nc2n(C2CCCC2)c1=O [Palbociclib] (partner 0.5 µM)
Summed up:
as §1

As for NCI-H650, the relative viability in test [1] (first compound 0.04 µM) is 0.337; in test [1] (first compound 0.1265 µM), 0.298; in test [1] (first compound 0.4 µM) it was 0.338; in test [1] (first compound 1.265 µM) it was 0.333; in test [1] (first compound 4 µM), 0.298; in test [2] (first compound 0.005 µM) it was 0.714. Also, the relative viability stood at 0.734 in test [2] (first compound 0.01581 µM); 0.699 in test [2] (first compound 0.05 µM); 0.693 in test [2] (first compound 0.1581 µM); 0.78 in test [2] (first compound 0.5 µM); 0.398 in test [3] (first compound 3.162 µM); 0.339 in test [3] (first compound 10 µM). The relative viability came to 0.221 in test [3] (first compound 31.62 µM); 0.355 in test [3] (first compound 100 µM); 0.327 in test [4] (first compound 0.005 µM); 0.342 in test [4] (first compound 0.01581 µM); 0.312 in test [4] (first compound 0.05 µM); 0.321 in test [4] (first compound 0.1581 µM). In addition, the relative viability in test [4] (first compound 0.5 µM) was 0.325.
